What follows are molecules tested on MCH receptors (assay: MCH receptor activity class (method not given)). Details: class by percent of control at 10^-7 M or IC50.
In the case of `CN(C)c1nc(N[C@H]2CC[C@@H](CNC(=O)Nc3cccc(Cl)c3Cl)CC2)nc2c1CCCC2` [compound 2486], the class is reported as 3 (Class 3 The value of percent of control at 10^−7 M was more than 60% or the value of IC50 was more than 200 nM.). For `Cc1ccc(NC(=O)NC[C@H]2CC[C@@H](Nc3nc4c(c(N(C)C)n3)CCCC4)CC2)cc1` [compound 2487], the class was 3 (Class 3 The value of percent of control at 10^−7 M was more than 60% or the value of IC50 was more than 200 nM.). In the case of `CC(C)c1cccc(C(C)C)c1NC(=O)NC[C@H]1CC[C@@H](Nc2nc3c(c(N(C)C)n2)CCCC3)CC1` [compound 2488, N-(2,6-diisopropylphenyl)-N′-[(cis-4-{[4-(dimethylamino)-5,6,7,8-tetrahydroquinazolin-2-yl]amino}cyclohexyl)methyl]urea], the class is reported as 2 (Class 2: The value of percent of control at 10^−7 M was from 40% to 60% or the value of IC′50 was from 50 nM to 200 nM.). For `Cc1ccc([N+](=O)[O-])c(NC(=O)NC[C@H]2CC[C@@H](Nc3nc4c(c(N(C)C)n3)CCCC4)CC2)c1C` [compound 2489], the class was 2 (Class 2: The value of percent of control at 10^−7 M was from 40% to 60% or the value of IC′50 was from 50 nM to 200 nM.). In the case of `CN(C)c1nc(N[C@H]2CC[C@@H](CNC(=O)Nc3c(Br)cc(F)cc3Br)CC2)nc2c1CCCC2` [compound 2490, N-(2,6-dibromo-4-fluorophenyl)-N′-[(cis-4-{[4-(dimethylamino)-5,6,7,8-tetrahydroquinazolin-2-yl]amino}cyclohexyl)methyl]urea], the class is reported as 1 (Class 1: The value of percent of control at 10^−7 M was less than 40% or the value of IC50 was less than 50 nM.). For `CN(C)c1nc(N[C@H]2CC[C@@H](CNC(=O)Nc3c(Cl)cccc3Cl)CC2)nc2c1CCCC2` [compound 2491, N-(2,6-dichlorophenyl)-N′-[(cis-4-{[4-(dimethylamino)-5,6,7,8-tetrahydroquinazolin-2-yl]amino}cyclohexyl)methyl]urea], the class was 1 (Class 1: The value of percent of control at 10^−7 M was less than 40% or the value of IC50 was less than 50 nM.). In the case of `COc1ccc(C)cc1NC(=O)NC[C@H]1CC[C@@H](Nc2nc3c(c(N(C)C)n2)CCCC3)CC1` [compound 2492], the class is reported as 3 (Class 3 The value of percent of control at 10^−7 M was more than 60% or the value of IC50 was more than 200 nM.). `Cc1cccc([N+](=O)[O-])c1NC(=O)NC[C@H]1CC[C@@H](Nc2nc3c(c(N(C)C)n2)CCCC3)CC1` [compound 2493] was tested, and the class was 3 (Class 3 The value of percent of control at 10^−7 M was more than 60% or the value of IC50 was more than 200 nM.). For `CN(C)c1nc(N[C@H]2CC[C@@H](CNC(=O)Nc3ccc(F)c(F)c3)CC2)nc2c1CCCC2` [compound 2494], the class was 3 (Class 3 The value of percent of control at 10^−7 M was more than 60% or the value of IC50 was more than 200 nM.). In the case of `CN(C)c1nc(N[C@H]2CC[C@@H](CNC(=O)Nc3cc(F)cc(F)c3)CC2)nc2c1CCCC2` [compound 2495], the class is reported as 3 (Class 3 The value of percent of control at 10^−7 M was more than 60% or the value of IC50 was more than 200 nM.). In the case of `CN(C)c1nc(N[C@H]2CC[C@@H](CNC(=O)Nc3ccc(F)c(Cl)c3)CC2)nc2c1CCCC2` [compound 2496], the class is reported as 3 (Class 3 The value of percent of control at 10^−7 M was more than 60% or the value of IC50 was more than 200 nM.).

Same assay, conditions: class by percent of control at 10^−7 M or IC50
With `Cc1cnc(N[C@H]2CC[C@@H](CNC(=O)c3ccccc3)CC2)nc1N(C)C` [compound 2690, N-[(cis-4-{[4-(dimethylamino)-5-methylpyrimidin-2-yl]amino}cyclohexyl)methyl]benzamide] the class was 3 (Class 3 The value of percent of control at 10^−7 M was more than 60% or the value of IC50 was more than 200 nM.). In the case of `Cc1ccc(C(=O)NC[C@H]2CC[C@@H](Nc3ncc(C)c(N(C)C)n3)CC2)cc1` [compound 2691], the class is reported as 3 (Class 3 The value of percent of control at 10^−7 M was more than 60% or the value of IC50 was more than 200 nM.). With `Cc1cnc(N[C@H]2CC[C@@H](CNC(=O)c3ccc(F)c(F)c3)CC2)nc1N(C)C` [compound 2692, N-[(cis-4-{[4-(dimethylamino)-5-methylpyrimidin-2-yl]amino}cyclohexyl)methyl]-3,4-difluorobenzamide] the class was 2 (Class 2: The value of percent of control at 10^−7 M was from 40% to 60% or the value of IC′50 was from 50 nM to 200 nM.). For `COc1ccc(C(=O)NC[C@H]2CC[C@@H](Nc3ncc(C)c(N(C)C)n3)CC2)cc1` [compound 2693], the class was 3 (Class 3 The value of percent of control at 10^−7 M was more than 60% or the value of IC50 was more than 200 nM.). For `COc1cc(OC)cc(C(=O)NC[C@H]2CC[C@@H](Nc3ncc(C)c(N(C)C)n3)CC2)c1` [compound 2694, N-[(cis-4-{[4-(dimethylamino)-5-methylpyrimidin-2-yl]amino}cyclohexyl)methyl]-3,5-dimethoxybenzamide], the class was 1 (Class 1: The value of percent of control at 10^−7 M was less than 40% or the value of IC50 was less than 50 nM.). In the case of `Cc1ccc(C(=O)NC[C@H]2CC[C@@H](Nc3ncc(C)c(N(C)C)n3)CC2)cc1F` [compound 2695, N-[(cis-4-{[4-(dimethylamino)-5-methylpyrimidin-2-yl]amino}cyclohexyl)methyl]-3-fluoro-4-methylbenzamide], the class is reported as 2 (Class 2: The value of percent of control at 10^−7 M was from 40% to 60% or the value of IC′50 was from 50 nM to 200 nM.). `Cc1cc(C(=O)NC[C@H]2CC[C@@H](Nc3ncc(C)c(N(C)C)n3)CC2)ccc1F` [compound 2696] was tested, and the class was 2 (Class 2: The value of percent of control at 10^−7 M was from 40% to 60% or the value of IC′50 was from 50 nM to 200 nM.). `Cc1cnc(N[C@H]2CC[C@@H](CNC(=O)c3cccc(C(F)(F)F)c3)CC2)nc1N(C)C` [compound 2697, N-[(cis-4-{[4-(dimethylamino)-5-methylpyrimidin-2-yl]amino}cyclohexyl)methyl]-3-(trifluoromethyl)benzamide] was tested, and the class was 1 (Class 1: The value of percent of control at 10^−7 M was less than 40% or the value of IC50 was less than 50 nM.). `Cc1cnc(N[C@H]2CC[C@@H](CNC(=O)c3ccc(C(F)(F)F)cc3)CC2)nc1N(C)C` [compound 2698] was tested, and the class was 3 (Class 3 The value of percent of control at 10^−7 M was more than 60% or the value of IC50 was more than 200 nM.). `Cc1cnc(N[C@H]2CC[C@@H](CNC(=O)c3cccc(OC(F)(F)F)c3)CC2)nc1N(C)C` [compound 2699, N-[(cis-4-{[4-(dimethylamino)-5-methylpyrimidin-2-yl]amino}cyclohexyl)methyl]-3-(trifluoromethoxy)benzamide] was tested, and the class was 2 (Class 2: The value of percent of control at 10^−7 M was from 40% to 60% or the value of IC′50 was from 50 nM to 200 nM.). With `Cc1cnc(N[C@H]2CC[C@@H](CNC(=O)c3ccc(OC(F)(F)F)cc3)CC2)nc1N(C)C` [compound 2700, N-[(cis-4-{[4-(dimethylamino)-5-methylpyrimidin-2-yl]amino}cyclohexyl)methyl]-4-(trifluoromethoxy)benzamide] the class was 2 (Class 2: The value of percent of control at 10^−7 M was from 40% to 60% or the value of IC′50 was from 50 nM to 200 nM.). `Cc1cnc(N[C@H]2CC[C@@H](CNC(=O)c3ccc(C#N)cc3)CC2)nc1N(C)C` [compound 2701] was tested, and the class was 2 (Class 2: The value of percent of control at 10^−7 M was from 40% to 60% or the value of IC′50 was from 50 nM to 200 nM.). With `Cc1cnc(N[C@H]2CC[C@@H](CNC(=O)c3ccc(Br)cc3)CC2)nc1N(C)C` [compound 2702] the class was 1 (Class 1: The value of percent of control at 10^−7 M was less than 40% or the value of IC50 was less than 50 nM.). In the case of `Cc1cc(C(=O)NC[C@H]2CC[C@@H](Nc3ncc(C)c(N(C)C)n3)CC2)ccc1Br` [compound 2703, 4-bromo-N-[(cis-4-{[4-(dimethylamino)-5-methylpyrimidin-2-yl]amino}cyclohexyl)methyl]-3-methylbenzamide], the class is reported as 1 (Class 1: The value of percent of control at 10^−7 M was less than 40% or the value of IC50 was less than 50 nM.). In the case of `Cc1cnc(N[C@H]2CC[C@@H](CNC(=O)c3ccc(F)c(Cl)c3)CC2)nc1N(C)C` [compound 2704], the class is reported as 1 (Class 1: The value of percent of control at 10^−7 M was less than 40% or the value of IC50 was less than 50 nM.). For `Cc1cnc(N[C@H]2CC[C@@H](CNC(=O)c3ccc(C(F)(F)F)c(F)c3)CC2)nc1N(C)C` [compound 2705, N-[(cis-4-{[4-(dimethylamino)-5-methylpyrimidin-2-yl]amino}cyclohexyl)methyl]-3-fluoro-4-(trifluoromethyl)benzamide], the class was 2 (Class 2: The value of percent of control at 10^−7 M was from 40% to 60% or the value of IC′50 was from 50 nM to 200 nM.). `Cc1cnc(N[C@H]2CC[C@@H](CNC(=O)c3cc(Cl)cc(Cl)c3)CC2)nc1N(C)C` [compound 2706, 3,5-dichloro-N-[(cis-4-{[4-(dimethylamino)-5-methylpyrimidin-2-yl]amino}cyclohexyl)methyl]benzamide] was tested, and the class was 1 (Class 1: The value of percent of control at 10^−7 M was less than 40% or the value of IC50 was less than 50 nM.). For `Cc1cnc(N[C@H]2CC[C@@H](CNC(=O)c3ccc(Cl)c(Cl)c3)CC2)nc1N(C)C` [compound 2707, 3,4-dichloro-N-[(cis-4-{[4-(dimethylamino)-5-methylpyrimidin-2-yl]amino}cyclohexyl)methyl]benzamide], the class was 1 (Class 1: The value of percent of control at 10^−7 M was less than 40% or the value of IC50 was less than 50 nM.). For `Cc1cnc(N[C@H]2CC[C@@H](CNC(=O)c3ccc4c(c3)OC(F)(F)O4)CC2)nc1N(C)C` [compound 2708], the class was 2 (Class 2: The value of percent of control at 10^−7 M was from 40% to 60% or the value of IC′50 was from 50 nM to 200 nM.). In the case of `Cc1cnc(N[C@H]2CC[C@@H](CNC(=O)c3ccc(-c4ccccc4)cc3)CC2)nc1N(C)C` [compound 2709], the class is reported as 3 (Class 3 The value of percent of control at 10^−7 M was more than 60% or the value of IC50 was more than 200 nM.). With `Cc1cnc(N[C@H]2CC[C@@H](CNC(=O)c3ccc(Cl)cc3)CC2)nc1N(C)C` [compound 2710, 4-chloro-N-[(cis-4-{[4-(dimethylamino)-5-methylpyrimidin-2-yl]amino}cyclohexyl)methyl]benzamide] the class was 2 (Class 2: The value of percent of control at 10^−7 M was from 40% to 60% or the value of IC′50 was from 50 nM to 200 nM.).
